# Laboratory results reported in ChEMBL document CHEMBL3885861, “Open TG-GATES”.
# Species: Rattus norvegicus
# Test: Open TG-GATES - Regimen: Daily Repeat
# Format: toxicity, organism-based, Sprague-Dawley
# Parameters: regimen Daily Repeat, gender Male, age 6 weeks
# Conditions: in vivo, iv, route intravenous injection; for KIDNEY_L / KIDNEY_R / KIDNEY_TOTAL: tissue Kidney; for LIVER: tissue Liver
# [1] = 1 mg/kg, 72 h, dose level Low, time 3 day
# [2] = 1 mg/kg, 72 h, tissue Blood, dose level Low, time 3 day
# [3] = 1 mg/kg, 72 h, tissue Plasma, dose level Low, time 3 day
# [4] = 1 mg/kg, […], dose level Low, time 7 day
# [5] = 1 mg/kg, […], dose level Low, time 14 day
# [6] = 1 mg/kg, […], dose level Low, time 28 day
# [7] = 1 mg/kg, […], tissue Blood, dose level Low, time 7 day
# [8] = 1 mg/kg, […], tissue Blood, dose level Low, time 14 day
# [9] = 1 mg/kg, […], tissue Blood, dose level Low, time 28 day
# [10] = 1 mg/kg, […], tissue Plasma, dose level Low, time 7 day
# [11] = 1 mg/kg, […], tissue Plasma, dose level Low, time 14 day
# [12] = 1 mg/kg, […], tissue Plasma, dose level Low, time 28 day
sequence,measurement,setting,value
CARBOPLATIN,gamma-GTP,"0 mg/kg, […], tissue Plasma, dose level Control, time 28 day",2.2 IU/L
same,TERMINAL_BW,[1],215.8 g
same,APTT,[2],23.9 s
same,Bas,[2],0%
same,Eos,[2],0.8%
same,Fbg,[2],317.8 mg/dL
same,Hb,[2],13 g/dL
same,Lym,[2],83%
same,MCHC,[2],32.2%
same,Mono,[2],2.8%
same,Neu,[2],12.6%
same,PT,[2],16.2 s
same,Plat,[2],122.5 x10_4/uL
same,RBC,[2],647.8 x10_4/ul
same,Ret,[2],4.5%
same,WBC,[2],100.1 x10_2/uL
same,KIDNEY_L,[1],0.9 g
same,KIDNEY_R,[1],0.9 g
same,KIDNEY_TOTAL,[1],1.9 g
same,LIVER,[1],9.5 g
same,ALP,[3],1749.2 IU/L
same,ALT,[3],44.2 IU/L
same,AST,[3],72.8 IU/L
same,BUN,[3],16.6 mg/dL
same,CRE,[3],0.2 mg/dL
same,DBIL,[3],0 mg/dL
same,GLC,[3],175.8 mg/dL
same,IP,[3],6.9 mg/dL
same,K,[3],4.6 meq/L
same,LDH,[3],189.6 IU/L
same,PL,[3],147.8 mg/dL
same,RALB,[3],3.1 g/dL
same,TBIL,[3],0.004 mg/dL
same,TC,[3],76.2 mg/dL
same,TG,[3],106.8 mg/dL
same,TP,[3],5.5 g/dL
same,gamma-GTP,[3],1.4 IU/L
same,TERMINAL_BW,[4],248.6 g
same,TERMINAL_BW,[5],299.2 g
same,TERMINAL_BW,[6],348.7 g
same,APTT,[7],22.2 s
same,Bas,[7],0%
same,Eos,[7],1%
same,Fbg,[7],304 mg/dL
same,Ht,[7],40.7%
same,Lym,[7],80.8%
same,MCH,[7],19.9 pg
same,MCHC,[7],32.4%
same,Mono,[7],2.4%
same,Plat,[7],136.3 x10_4/uL
same,RBC,[7],662 x10_4/ul
same,Ret,[7],4.6%
same,WBC,[7],108.6 x10_2/uL
same,APTT,[8],26.4 s
same,Bas,[8],0%
same,Eos,[8],1%
same,Fbg,[8],302.2 mg/dL
same,Hb,[8],14.1 g/dL
same,Ht,[8],42.1%
same,Lym,[8],83.2%
same,MCHC,[8],33.4%
same,MCV,[8],60.3 fL
same,Mono,[8],2.5%
same,Neu,[8],12%
same,Plat,[8],111 x10_4/uL
same,RBC,[8],698.8 x10_4/ul
same,Ret,[8],3.1%
same,WBC,[8],122.2 x10_2/uL
same,APTT,[9],24.7 s
same,Bas,[9],0%
same,Eos,[9],1.2%
same,Fbg,[9],311.6 mg/dL
same,Ht,[9],42.3%
same,Lym,[9],83.2%
same,MCH,[9],19.1 pg
same,MCHC,[9],35.1%
same,MCV,[9],54.4 fL
same,Mono,[9],2.6%
same,Neu,[9],12%
same,Plat,[9],105.6 x10_4/uL
same,RBC,[9],777.8 x10_4/ul
same,Ret,[9],1.7%
same,WBC,[9],94.6 x10_2/uL
same,KIDNEY_L,[4],1 g
same,KIDNEY_R,[4],1 g
same,KIDNEY_TOTAL,[4],2 g
same,KIDNEY_L,[5],1.2 g
same,KIDNEY_R,[5],1.2 g
same,KIDNEY_TOTAL,[5],2.4 g
same,KIDNEY_L,[6],1.3 g
same,KIDNEY_R,[6],1.3 g
same,KIDNEY_TOTAL,[6],2.6 g
same,LIVER,[4],11.2 g
same,LIVER,[6],13.5 g
same,ALP,[10],1760.4 IU/L
same,ALT,[10],40.6 IU/L
same,AST,[10],75 IU/L
same,BUN,[10],16.4 mg/dL
same,CRE,[10],0.2 mg/dL
same,Ca,[10],11 mg/dL
same,DBIL,[10],0 mg/dL
same,IP,[10],7.5 mg/dL
same,K,[10],4.6 meq/L
same,LDH,[10],138.8 IU/L
same,Na,[10],140.2 meq/L
same,PL,[10],138.2 mg/dL
same,RALB,[10],3 g/dL
same,TBIL,[10],0.008 mg/dL
same,TG,[10],94.6 mg/dL
same,TP,[10],5.6 g/dL
same,gamma-GTP,[10],2.2 IU/L
same,ALP,[11],1603 IU/L
same,ALT,[11],38 IU/L
same,AST,[11],80.4 IU/L
same,BUN,[11],18 mg/dL
same,CRE,[11],0.2 mg/dL
same,DBIL,[11],0.004 mg/dL
same,GLC,[11],171.6 mg/dL
same,IP,[11],6.4 mg/dL
same,K,[11],4.5 meq/L
same,LDH,[11],160 IU/L
same,PL,[11],130.2 mg/dL
same,RALB,[11],3.1 g/dL
same,TBIL,[11],0.01 mg/dL
same,TC,[11],64.8 mg/dL
same,TG,[11],101.6 mg/dL
same,TP,[11],5.9 g/dL
same,gamma-GTP,[11],2.6 IU/L
same,ALP,[12],1005 IU/L
same,ALT,[12],40.4 IU/L
same,CRE,[12],0.2 mg/dL
same,DBIL,[12],0 mg/dL
same,GLC,[12],181 mg/dL
same,IP,[12],6 mg/dL
same,K,[12],4.2 meq/L
same,LDH,[12],140.2 IU/L
same,PL,[12],133.8 mg/dL
same,RALB,[12],3 g/dL
same,TBIL,[12],0.006 mg/dL
same,TC,[12],68.8 mg/dL
same,TG,[12],102.2 mg/dL
same,TP,[12],6 g/dL
same,gamma-GTP,[12],2.4 IU/L
